# Read-outs that look alike come from different tables or passages of the source.
# Tests used:
# [1] = test system: MRSA COL and MRSA Strain No. 5; assay: Potentiating effect of various gallates for antibacterial activity of oxacillin (MIC by broth microdilution method and FIC); type: cell-based, Staphylococcus aureus; settings: for FIC value: combination with oxacillin; for antibacterial activity when used alone: COL Strain and Strain No. 5
# Procedure: According to the broth microdilution method defined by Japan Society of Chemotherapy, MIC was determined. CAMHA was prepared by adding 50 mg/l of Ca-ion, 25 mg/l of Mg-ion, and 2% of NaCl to MHB (Mueller-Hinton Broth), and it was used as a medium for use in the measurement of sensitivity. In 96-well microplates 100 μl of the medium for use in the measurement of sensitivity containing drugs was dispensed. The bacterial liquid was incubated at 37° C. overnight, diluted with saline and added to the plate so that the final concentration of the bacteria was 5×10^5 CFU/well. […] FIC (fractional inhibitory concentration) was calculated from the result and the potency of the effect of the combination use was evaluated.
# MRSA and MSSA = assay: Antibacterial activity of gallic acid, various gallates and multivalent phenol derivatives alone (agar plate dilution method, MIC); type: cell-based, Staphylococcus aureus; settings: Staphylococcus aureus
# Procedure: According to the agar plate dilution method defined by Japan Society of Chemotherapy, MIC (Minimum inhibitory concentration) was determined. CAMHA was prepared by adding 50 mg/l of Ca-ion, 25 mg/l of Mg-ion, and 2% of NaCl to Mueller-Hinton II Agar (MHA), and it was used as a medium for use in the measurement of sensitivity. The bacterial liquid was incubated at 37° C. overnight and diluted to 10^6 CFU/ml with saline.
# MIC for gallic acid, various gallates and multivalent phenol derivatives alone with MRSA and MSSA were determined as described in experiment 2.
# [2] = COL, compound alone, read-out: MIC
# [3] = MRSA #1, compound alone, read-out: MIC
# [4] = MRSA #2, compound alone, read-out: MIC
# [5] = MRSA #3, compound alone, read-out: MIC
# [6] = MRSA #4, compound alone, read-out: MIC
# [7] = MRSA #5, compound alone, read-out: MIC
# [8] = MRSA #6, compound alone, read-out: MIC
# [9] = MRSA #7, compound alone, read-out: MIC
# [10] = MRSA #8, compound alone, read-out: MIC
# [11] = MRSA #9, compound alone, read-out: MIC
# [12] = MRSA #10, compound alone, read-out: MIC
# [13] = MRSA #12, compound alone, read-out: MIC
# [14] = MRSA #16, compound alone, read-out: MIC
# [15] = MRSA #17, compound alone, read-out: MIC
# [16] = MRSA #18, compound alone, read-out: MIC
# [17] = MRSA #20, compound alone, read-out: MIC
# [18] = MRSA #21, compound alone, read-out: MIC
# [19] = MRSA #22, compound alone, read-out: MIC
# [20] = MRSA #24, compound alone, read-out: MIC
# [21] = MSSA #1003, compound alone, read-out: MIC
# [22] = MSSA #1010, compound alone, read-out: MIC
# [23] = MSSA #1020, compound alone, read-out: MIC
# [24] = MSSA #1023, compound alone, read-out: MIC
# [25] = MSSA #1029, compound alone, read-out: MIC
# [26] = MSSA #1032, compound alone, read-out: MIC
compound,measurement,setting,value
"CCCCCCCCCCCCOC(=O)c1cc(O)c(O)c(O)c1 [Lauryl gallate, n-lauryl gallate]",FIC value,[1]; MRSA COL,0.531
same,FIC value,[1]; MRSA Strain No. 5,0.375
same,MIC,"MRSA and MSSA; ATCC 6538 / MRSA / MSSA, ATCC6538, compound alone, read-out: MIC",62.5 µg/mL
same,MIC,MRSA and MSSA; [2],31.3 µg/mL
same,MIC,MRSA and MSSA; [3],62.5 µg/mL
same,MIC,MRSA and MSSA; [4],62.5 µg/mL
same,MIC,MRSA and MSSA; [5],62.5 µg/mL
same,MIC,MRSA and MSSA; [6],62.5 µg/mL
same,MIC,MRSA and MSSA; [7],62.5 µg/mL
same,MIC,MRSA and MSSA; [8],31.3 µg/mL
same,MIC,MRSA and MSSA; [9],31.3 µg/mL
same,MIC,MRSA and MSSA; [10],31.3 µg/mL
same,MIC,MRSA and MSSA; [11],31.3 µg/mL
same,MIC,MRSA and MSSA; [12],15.6 µg/mL
same,MIC,MRSA and MSSA; [13],62.5 µg/mL
same,MIC,MRSA and MSSA; [14],62.5 µg/mL
same,MIC,MRSA and MSSA; [15],62.5 µg/mL
same,MIC,MRSA and MSSA; [16],62.5 µg/mL
same,MIC,MRSA and MSSA; [17],62.5 µg/mL
same,MIC,MRSA and MSSA; [18],62.5 µg/mL
same,MIC,MRSA and MSSA; [19],62.5 µg/mL
same,MIC,MRSA and MSSA; [20],62.5 µg/mL
same,MIC,MRSA and MSSA; [21],62.6 µg/mL
same,MIC,MRSA and MSSA; [22],62.5 µg/mL
same,MIC,MRSA and MSSA; [23],62.5 µg/mL
same,MIC,MRSA and MSSA; [24],62.5 µg/mL
same,MIC,MRSA and MSSA; [25],62.5 µg/mL
same,MIC,MRSA and MSSA; [26],62.5 µg/mL
same,MIC50,"MRSA and MSSA; over all strains of Table 3-2, compound alone, read-out: MIC50",62.5 µg/mL
"CCCCCCCCOC(=O)c1cc(O)c(O)c(O)c1 [Octyl gallate, n-octyl gallate]",antibacterial activity when used alone,[1],most potent
same,FIC value,[1]; MRSA COL,0.252
same,FIC value,[1]; MRSA Strain No. 5,0.75
same,MIC50,MRSA and MSSA,31.3 µg/mL
same,MIC,"MRSA and MSSA; ATCC 6538 / MRSA / MSSA, read-out: MIC alone",31.3 µg/mL
same,MIC,"MRSA and MSSA; COL, read-out: MIC alone",31.3 µg/mL
same,MIC,"MRSA and MSSA; MRSA #1, read-out: MIC alone",31.3 µg/mL
same,MIC,"MRSA and MSSA; MRSA #2, read-out: MIC alone",31.3 µg/mL
same,MIC,"MRSA and MSSA; MRSA #3, read-out: MIC alone",31.3 µg/mL
same,MIC,"MRSA and MSSA; MRSA #4, read-out: MIC alone",31.3 µg/mL
same,MIC,"MRSA and MSSA; MRSA #5, read-out: MIC alone",31.3 µg/mL
same,MIC,"MRSA and MSSA; MRSA #6, read-out: MIC alone",31.3 µg/mL
same,MIC,"MRSA and MSSA; MRSA #7, read-out: MIC alone",31.3 µg/mL
same,MIC,"MRSA and MSSA; MRSA #8, read-out: MIC alone",31.3 µg/mL
same,MIC,"MRSA and MSSA; MRSA #9, read-out: MIC alone",31.3 µg/mL
same,MIC,"MRSA and MSSA; MRSA #10, read-out: MIC alone",15.6 µg/mL
same,MIC,"MRSA and MSSA; MRSA #12, read-out: MIC alone",31.3 µg/mL
same,MIC,"MRSA and MSSA; MRSA #16, read-out: MIC alone",31.3 µg/mL
same,MIC,"MRSA and MSSA; MRSA #17, read-out: MIC alone",31.3 µg/mL
same,MIC,"MRSA and MSSA; MRSA #18, read-out: MIC alone",31.3 µg/mL
same,MIC,"MRSA and MSSA; MRSA #20, read-out: MIC alone",31.3 µg/mL
same,MIC,"MRSA and MSSA; MRSA #21, read-out: MIC alone",31.3 µg/mL
same,MIC,"MRSA and MSSA; MRSA #22, read-out: MIC alone",31.3 µg/mL
same,MIC,"MRSA and MSSA; MRSA #24, read-out: MIC alone",31.3 µg/mL
same,MIC,"MRSA and MSSA; MSSA #1003, read-out: MIC alone",31.3 µg/mL
same,MIC,"MRSA and MSSA; MSSA #1010, read-out: MIC alone",31.3 µg/mL
same,MIC,"MRSA and MSSA; MSSA #1020, read-out: MIC alone",31.3 µg/mL
same,MIC,"MRSA and MSSA; MSSA #1023, read-out: MIC alone",31.3 µg/mL
same,MIC,"MRSA and MSSA; MSSA #1029, read-out: MIC alone",31.3 µg/mL
same,MIC,"MRSA and MSSA; MSSA #1032, read-out: MIC alone",31.3 µg/mL
"CCCCCCCCCCCOC(=O)c1cc(O)c(O)c(O)c1 [Undecyl gallate, n-undecyl gallate]",antibacterial activity when used alone,[1],most potent
same,FIC value,[1]; MRSA COL,0.313
same,FIC value,[1]; MRSA Strain No. 5,0.251
same,MIC50,MRSA and MSSA,31.3 µg/mL
same,MIC,MRSA and MSSA; ATCC 6538 / MRSA / MSSA,31.3 µg/mL
same,MIC,MRSA and MSSA; [2],31.3 µg/mL
same,MIC,MRSA and MSSA; [3],31.3 µg/mL
same,MIC,MRSA and MSSA; [4],31.3 µg/mL
same,MIC,MRSA and MSSA; [5],31.3 µg/mL
same,MIC,MRSA and MSSA; [6],31.3 µg/mL
same,MIC,MRSA and MSSA; [7],31.3 µg/mL
same,MIC,MRSA and MSSA; [8],31.3 µg/mL
same,MIC,MRSA and MSSA; [9],31.3 µg/mL
same,MIC,MRSA and MSSA; [10],31.3 µg/mL
same,MIC,MRSA and MSSA; [11],31.3 µg/mL
same,MIC,MRSA and MSSA; [12],31.3 µg/mL
same,MIC,MRSA and MSSA; [13],31.3 µg/mL
same,MIC,MRSA and MSSA; [14],31.3 µg/mL
same,MIC,MRSA and MSSA; [15],31.3 µg/mL
same,MIC,MRSA and MSSA; [16],31.3 µg/mL
same,MIC,MRSA and MSSA; [17],31.3 µg/mL
same,MIC,MRSA and MSSA; [18],31.3 µg/mL
same,MIC,MRSA and MSSA; [19],31.3 µg/mL
same,MIC,MRSA and MSSA; [20],31.3 µg/mL
same,MIC,MRSA and MSSA; [21],31.3 µg/mL
same,MIC,MRSA and MSSA; [22],31.3 µg/mL
same,MIC,MRSA and MSSA; [23],31.3 µg/mL
same,MIC,MRSA and MSSA; [24],31.3 µg/mL
same,MIC,MRSA and MSSA; [25],31.3 µg/mL
same,MIC,MRSA and MSSA; [26],31.3 µg/mL

# Reference: US20060235076A1, “Medicinal composition for treating infection with drug-resistant staphylococcus aureus” (priority 2003, published 2006)
